{"source": "patent US20120077836A1", "about": "“METHODS OF ADMINISTERING (4AR,10AR)-1-N-PROPYL-1,2,3,4,4A,5,10,10A-OCTAHYDROBENZO [G] QUINOLINE-6,7-DIOL AND RELATED COMPOUNDS ACROSS THE ORAL MUCOSA, THE NASAL MUCOSA OR THE SKIN AND PHARMACEUTICAL COMPOSITIONS THEREOF” (priority 2009, published 2012)", "key": {"[1]": {"biological_target": "T1, human recombinant D1 receptor (Homo sapiens, UniProt P21728)", "T1 construct": "expressed in transfected cells", "T1 sequence (P21728 whole entry)": "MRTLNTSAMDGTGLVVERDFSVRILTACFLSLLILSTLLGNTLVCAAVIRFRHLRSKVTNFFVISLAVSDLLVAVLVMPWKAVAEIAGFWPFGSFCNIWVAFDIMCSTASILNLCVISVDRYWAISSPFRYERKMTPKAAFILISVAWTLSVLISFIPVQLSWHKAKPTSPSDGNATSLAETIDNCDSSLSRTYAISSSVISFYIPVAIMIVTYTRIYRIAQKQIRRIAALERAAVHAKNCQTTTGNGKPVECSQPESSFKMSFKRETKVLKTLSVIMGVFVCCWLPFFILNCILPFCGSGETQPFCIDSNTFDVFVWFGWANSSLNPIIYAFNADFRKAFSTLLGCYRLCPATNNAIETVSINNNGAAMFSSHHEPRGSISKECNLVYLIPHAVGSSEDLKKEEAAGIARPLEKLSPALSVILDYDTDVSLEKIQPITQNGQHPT", "assay": "D1 cAMP assay", "format": "cell-based", "description": "The ability of the compounds to either stimulate or inhibit the D1 receptor mediated cAMP formation in CHO cells stably expressing the human recombinant D1 receptor was measured as follows. Cells were seeded in 96-well plates at a concentration of 11000 cells/well 3 days prior to the experiment."}, "human D2 receptor": {"biological_target": "T2, human D2 receptor (Homo sapiens, UniProt P14416)", "T2 construct": "expressed in transfected cells; host or cells: CHO cells", "T2 sequence (P14416 whole entry)": "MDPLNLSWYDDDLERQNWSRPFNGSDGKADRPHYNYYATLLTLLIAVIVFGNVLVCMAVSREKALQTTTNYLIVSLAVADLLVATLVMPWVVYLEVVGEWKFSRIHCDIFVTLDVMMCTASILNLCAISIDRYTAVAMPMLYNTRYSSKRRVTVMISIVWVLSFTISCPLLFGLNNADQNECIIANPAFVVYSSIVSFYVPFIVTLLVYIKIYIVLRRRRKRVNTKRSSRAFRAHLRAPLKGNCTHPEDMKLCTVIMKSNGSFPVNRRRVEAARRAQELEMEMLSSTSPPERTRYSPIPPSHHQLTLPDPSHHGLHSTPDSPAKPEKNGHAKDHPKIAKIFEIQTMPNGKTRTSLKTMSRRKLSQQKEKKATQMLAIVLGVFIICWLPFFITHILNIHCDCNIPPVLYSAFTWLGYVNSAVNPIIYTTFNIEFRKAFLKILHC", "assay": "D2 cAMP assay", "format": "cell-based", "description": "The ability of the compounds to either stimulate or inhibit the D2 receptor mediated inhibition of cAMP formation in CHO cells transfected with the human D2 receptor was measured as follows. Cells were seeded in 96 well plates at a concentration of 8000 cells/well 3 days prior to the experiment. On the day of the experiment the cells were washed once in preheated G buffer (1 mM MgCl2, 0.9 mM CaCl2, 1 mM IBMX in PBS) and the assay was initiated by addition of 100 micro-1 of a mixture of 1 micro-M quinpirole, 10 microM forskolin and test compound in G buffer (antagonism) or 10 micro-M forskolin and test compound in G buffer (agonism)."}, "[2]": {"biological_target": "T3, hD5-transfected CHO-Ga16 cells (Homo sapiens, UniProt P21918)", "T3 construct": "expressed in transfected cells; host or cells: CHO-Ga16 cells", "T3 sequence (P21918 whole entry)": "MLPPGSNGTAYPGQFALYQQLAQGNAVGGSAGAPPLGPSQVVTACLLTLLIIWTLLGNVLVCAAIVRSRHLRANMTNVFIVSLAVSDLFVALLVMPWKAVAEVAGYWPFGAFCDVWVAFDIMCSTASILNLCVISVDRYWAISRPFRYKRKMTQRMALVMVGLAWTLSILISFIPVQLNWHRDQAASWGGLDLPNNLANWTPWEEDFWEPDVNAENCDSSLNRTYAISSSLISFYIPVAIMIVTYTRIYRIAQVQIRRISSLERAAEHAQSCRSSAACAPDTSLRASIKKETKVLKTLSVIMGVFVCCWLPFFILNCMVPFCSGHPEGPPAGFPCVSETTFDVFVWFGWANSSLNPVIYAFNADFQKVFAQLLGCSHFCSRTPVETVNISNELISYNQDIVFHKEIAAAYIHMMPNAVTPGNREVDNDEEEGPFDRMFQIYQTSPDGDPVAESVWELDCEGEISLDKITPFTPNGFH", "assay": "D5 assay, intracellular Ca2+ release (FLIPR)", "format": "cell-based"}, "[3]": {"system": "rats with unilateral 6-OHDA lesions", "assay": "D1/D2 dissection, rotation response in rats with unilateral 6-OHDA lesions", "format": "in vivo, rat", "description": "Rats weighing 200-250 g were subjected to unilateral 6-OHDA lesions. […] Nemonapride is a D2 antagonist that blocks the D2 receptors, therefore any observed rotations would be dependent upon activity at the D1 receptors."}, "6-OHDA rats": {"system": "6-OHDA rats", "assay": "Reversal of L-DOPA-induced dyskinesias in 6-OHDA rats (AIMS)", "format": "in vivo, rat", "description": "Animals were observed on Days 1, 3 and 5 and AIMS were scored. The day 5 scores were then used to separate the animals into three groups of 6 animals each. Group 1 continued with daily L-DOPA treatment. […] Treatment continued daily for 10 days and the amount of dyskinesia was scored on days 1, 5, 9 and 10."}, "reserpinesed rats": {"system": "reserpinesed rats", "assay": "Reversal of reserpine-induced hypomotility in rats", "format": "in vivo, rat", "settings": "for activity count: reserpine 5 mg/kg SC 23-24 h before, over 3 hours", "description": "Rats weighing ca. 200 g were treated with reserpine (5 mg/kg subcutaneously as a solution in 20% aqueous solutol for which pH was adjusted to 4 with methanesulfonic acid). […] Group 1: treated with 20% ethanol in 0.7% aqueous sodium chloride subcutaneously."}, "[4]": {"system": "rats with unilateral 6-OHDA lesions", "assay": "Rotation response in 6-OHDA rats after transdermal delivery", "format": "in vivo, rat", "description": "We have used rats with unilateral 6-OHDA lesions to assess compound 10 for its ability to induce rotation after transdermal administration [for details on the model, see the description under example 7]. Three groups of six animals were treated with different doses of compound 10 administered transdermally. Compound 10 (24 mg) was suspended in a mixture of 0.02% ascorbic acid and 20% ethanol in saline (9 mL); the resulting suspension was diluted with dimethyl sulfoxide (0.45 mL). The appropriate amount of this formulation was applied to the ears of the animals. The ears were rubbed gently before the rotation response of the animals was assessed over 3 h. […]"}, "[5]": {"settings": "read-out: intrinsic activity (efficacy)"}}, "note": "Structures can show the parent of a compound that is named as a salt.", "data": [{"smiles": "CCCN1CCC[C@@H]2Cc3c(ccc(O)c3O)C[C@H]21", "note": "[compound 10, (4aR,10aR)-1-n-Propyl-1,2,3,4,4a,5,10,10a-octahydro-benzo[g]quinoline-6,7-diol hydrobromide]", "values": [{"measurement": "EC50", "setting": "[1]", "value": 15.5, "unit": "nM"}, {"measurement": "Emax", "setting": "[1]; [5]", "value": 100, "unit": "%"}, {"measurement": "EC50", "setting": "human D2 receptor", "value": 0.11, "unit": "nM"}, {"measurement": "Emax", "setting": "human D2 receptor; [5]", "value": 100, "unit": "%"}, {"measurement": "EC50", "setting": "[2]", "value": 0.06, "unit": "nM"}, {"measurement": "Emax", "setting": "[2]; CHO-Ga16, read-out: intrinsic activity (efficacy)", "value": 95, "unit": "%"}, {"measurement": "MED (minimum effective dose to induce rotation)", "setting": "[3]; dosed SC, 6-OHDA rats", "value": 0.65, "unit": "µg/kg"}, {"measurement": "MEDNemonapride (MED to overcome Nemonapride block)", "setting": "[3]; dosed SC, 6-OHDA rats, * = rotations could not be blocked by SCH23390", "value": 1.3, "unit": "µg/kg"}, {"measurement": "mixed D1/D2 ratio", "setting": "[3]; subcutaneous, 6-OHDA rat rotation model", "value": "about 2"}, {"measurement": "dyskinesias versus other groups (two-way repeated measures ANOVA)", "setting": "6-OHDA rats; L-DOPA-primed 6-OHDA rats, 10 days treatment", "value": "significantly fewer dyskinesias than both the pramipexole group and the L-DOPA/Benserazide group"}, {"measurement": "mean AIM score (days 1, 5, 9, 10)", "setting": "6-OHDA rats; after 7 days L-DOPA/Benserazide priming, once daily days 1-10: L-DOPA/Benserazide 6/15 mg/kg SC, compound 10 0.0013 mg/kg SC, pramipexole […] SC", "value": 44}, {"measurement": "reversal of reserpine-induced hypomotility", "setting": "reserpinesed rats; administered buccally", "value": "reversed the hypomotility"}, {"measurement": "reversal of reserpine-induced hypomotility", "setting": "reserpinesed rats; administered subcutaneously", "value": "reversed the reserpine-induced hypomotility"}, {"measurement": "activity count", "setting": "reserpinesed rats; 0.05 mg/kg buccally", "value": 378}, {"measurement": "activity count", "setting": "reserpinesed rats; 0.10 mg/kg buccally", "value": 533}, {"measurement": "activity count", "setting": "reserpinesed rats; apomorphine 1 mg/kg SC, compound 10 0.01 mg/kg SC, controls: vehicle 486, reserpine/vehicle 17", "value": 308}, {"measurement": "mean number of rotations over 3 h", "setting": "[4]; 0.127 mg/kg transdermally (ears)", "value": 482}, {"measurement": "mean number of rotations over 3 h", "setting": "[4]; 0.254 mg/kg transdermally (ears)", "value": 837}, {"measurement": "mean number of rotations over 3 h", "setting": "[4]; 0.381 mg/kg transdermally (ears)", "value": 1448}, {"measurement": "induction of circling behavior", "setting": "[4]; transdermal delivery, three dose groups", "value": "induced circling behavior in all three groups"}]}]}
